Results published in patent EP0107350A1, “Sulfon amides” (Beecham Wuelfing GmbH & Co KG, priority 1982, dated 1984).

What follows are molecules tested on Guinea pigs (assay: Electrostimulation test (antiarrhythmic effect; voltage needed to induce extrasystoles/arrhythmias by electrostimulation of the right ventricle)). Details: anaesthetized Guinea pigs (Urethane 1.2 g/kg i.p.), substances given intraduodenally 30 min before stimulation; 6 treated vs 6 control animals; * = statistically significant p<0.05; dose not given.
Format: in vivo
Method: According to the method described by […]. and PAPP, G J., (Naunyn-Schmiedebergs Arch. exp. Path. Pharmak. 245, 70 (1963), arrhythmias are induced in Guinea pigs by electostimulation of the right ventricle of the heart. The animals are anaesthetized with Urethane (1.2 g/kg i.p.) and artificially respired before a needle electrode is inserted in the right ventricle of the heart. Substances are given intraduodenally 30 min before the stimulation. The voltage needed for induction of extrasystoles in 6 control animals (n=6) is compared with that required for induction of arrhythmias in 6 treated animals (n=6). The difference is statistically evaluated by the unpaired t-test (STUDENT). This method was used to evaluate the compounds of the present invention. In Tables 1 and 2, ^* means statistically significant p<0.05.

Compound | % Increase in Test Voltage
Cc1cc(C)c(S(=O)(=O)NC(C)CCCN2CCCCC2C)c(C)c1 (stereo not shown) [(1)] | 89.4* %
CC(CN1CCCCC1)NS(=O)(=O)c1cc(Cl)c(Cl)cc1Cl.Cl (stereo not shown) [(2), 1-[2-(2,4,5-trichlorobenzenesulphonamido)-propyl] piperidinium chloride] | 29.6* %
Cc1cc(C)c(S(=O)(=O)NC(C)CCCN2CC(C)CC2C)c(C)c1 (stereo not shown) [(3)] | 87.7* %
CC1CCCCN1CC(O)CNS(=O)(=O)c1cc(Cl)c(Cl)cc1Cl (stereo not shown) [(4)] | 60.6* %
Cc1cc(C)c(S(=O)(=O)NCC(O)CN2CCCC2)c(C)c1 (stereo not shown) [(5)] | 29.5* %
Cc1cc(C)c(S(=O)(=O)NCC(O)CN2CC(C)CC2C)c(C)c1 (stereo not shown) [(6)] | 12.1* %
Cc1cc(C)c(S(=O)(=O)NCC(O)CN2CCCCC2C)c(C)c1 (stereo not shown) [(7)] | 13.4* %
